Values quoted from earlier work as cited in PubChem BioAssay AID1259409 (Chemical Carcinogenesis Research Information System (CCRIS), 2018).

Tested on: rodent chemically induced tumor inhibition, incidence and multiplicity
Assay: CCRIS tumor inhibitor studies
Conditions: Dose [Inhibitor]: 0, 500 MG/KG BW/D FOR 24 WK BEGINNING 14 WK POST CARCINOGEN FIRST DOSE (STUDY DURATION: 38 WK), Route [Inhibitor]: ORAL, Species: RAT, Strain/Sex: WISTAR/MALE, FEMALE

Question: Which results are given for `COc1c(N2C[C@@H]3CCCN[C@@H]3C2)c(F)cc2c(=O)c(C(=O)O)cn(C3CC3)c12`?
Answer: outcome (Carcinogen: N-BUTYL-N-(4-HYDROXYBUTYL)NITROSAMINE, 3817-11-6, Target Tissue: Type of Lesion: LIVER: TUMOR, Dose [Carcinogen]: 0.02% IN DRINKING WATER FOR FIRST 9 WK): 0%, 1/18 (6%), -100%, not significant; tumour outcome (control, treated, inhibition, significance) (Carcinogen: N-BUTYL-N-(4-HYDROXYBUTYL)NITROSAMINE, 3817-11-6, Target Tissue: Type of Lesion: URINARY BLADDER: TUMOR, Dose [Carcinogen]: 0.02% IN DRINKING WATER FOR FIRST 9 WK): 13/18 (72%), 10/18 (56%), 22%, not significant; tumour outcome (control, treated, inhibition, significance) (Carcinogen: N-ETHYL-N-NITROSOUREA, 759-73-9, Target Tissue: Type of Lesion: AUDITORY SEBACEOUS GLAND: TUMOR, Dose [Carcinogen]: 20 MG/KG BW 1/WK FOR FIRST 10 WK): 9/26 (35%), 4/26 (15%), 57%, not significant; tumour outcome (control, treated, inhibition, significance) (Carcinogen: N-ETHYL-N-NITROSOUREA, 759-73-9, Target Tissue: Type of Lesion: HEART: TUMOR, Dose [Carcinogen]: 20 MG/KG BW 1/WK FOR FIRST 10 WK): 1/26 (4%), 0%, 100%, not significant; tumour outcome (control, treated, inhibition, significance) (Carcinogen: N-ETHYL-N-NITROSOUREA, 759-73-9, Target Tissue: Type of Lesion: HEMATOLYMPHORETICULAR: TUMOR, Dose [Carcinogen]: 20 MG/KG BW 1/WK FOR FIRST 10 WK): 15/26 (58%), 13/26 (50%), 14%, not significant; tumour outcome (control, treated, inhibition, significance) (Carcinogen: N-ETHYL-N-NITROSOUREA, 759-73-9, Target Tissue: Type of Lesion: LARGE INTESTINE: TUMOR, Dose [Carcinogen]: 20 MG/KG BW 1/WK FOR FIRST 10 WK): 9/26 (35%), 7/26 (27%), 23%, not significant; outcome (Carcinogen: N-ETHYL-N-NITROSOUREA, 759-73-9, Target Tissue: Type of Lesion: LIVER: TUMOR, Dose [Carcinogen]: 20 MG/KG BW 1/WK FOR FIRST 10 WK): 0%, 0%, 0%, not significant; tumour outcome (control, treated, inhibition, significance) (Carcinogen: N-ETHYL-N-NITROSOUREA, 759-73-9, Target Tissue: Type of Lesion: MAMMARY GLAND: TUMOR, Dose [Carcinogen]: 20 MG/KG BW 1/WK FOR FIRST 10 WK): 5/26 (19%), 2/26 (8%), 58%, not significant; outcome (Carcinogen: N-ETHYL-N-NITROSOUREA, 759-73-9, Target Tissue: Type of Lesion: MESENTERY: TUMOR, Dose [Carcinogen]: 20 MG/KG BW 1/WK FOR FIRST 10 WK): 0%, 1/26 (4%), -100%, not significant; outcome (Carcinogen: N-ETHYL-N-NITROSOUREA, 759-73-9, Target Tissue: Type of Lesion: NASAL CAVITY: TUMOR, Dose [Carcinogen]: 20 MG/KG BW 1/WK FOR FIRST 10 WK): 0%, 0%, 0%, not significant; outcome (Carcinogen: N-ETHYL-N-NITROSOUREA, 759-73-9, Target Tissue: Type of Lesion: PANCREAS: TUMOR, Dose [Carcinogen]: 20 MG/KG BW 1/WK FOR FIRST 10 WK): 0%, 0%, 0%, not significant; tumour outcome (control, treated, inhibition, significance) (Carcinogen: N-ETHYL-N-NITROSOUREA, 759-73-9, Target Tissue: Type of Lesion: SEMINAL VESICLES: TUMOR, Dose [Carcinogen]: 20 MG/KG BW 1/WK FOR FIRST 10 WK): 1/26 (4%), 0%, 100%, not significant; tumour outcome (control, treated, inhibition, significance) (Carcinogen: N-ETHYL-N-NITROSOUREA, 759-73-9, Target Tissue: Type of Lesion: SKIN: TUMOR, Dose [Carcinogen]: 20 MG/KG BW 1/WK FOR FIRST 10 WK): 9/26 (35%), 10/26 (39%), -11%, not significant; outcome (Carcinogen: N-ETHYL-N-NITROSOUREA, 759-73-9, Target Tissue: Type of Lesion: SUBCUTIS: TUMOR, Dose [Carcinogen]: 20 MG/KG BW 1/WK FOR FIRST 10 WK): 0%, 0%, 0%, not significant
